Assay results as given in patent publication US7744936B2, “Method for preparing extract from wild ginseng showing anticancer activity and the composition comprising the same” (Seocksanteo Medical Co., Ltd., priority 2004, dated 2010).
Values after ≈ are worked out from the molar mass of the structure shown.

Assays:
[1] = tested on: Lewis lung carcinoma cells; test: Inhibition of tumor volume increase, Lewis lung carcinoma in mice; assay type: in vivo, BDF-1 male mice; settings: 0.5 mg/mouse intraperitoneally, 2 weeks
Description: To determine the inhibitory effect on the volumetric increase of cancer cell, following experiment was performed by modifying the procedure disclosed in the literature (Teruhiro et al., Cancer Res., 56, pp 2809-14, 1996).
Lewis lung carcinoma cells (1×10^6 cells/well) which had been sub-cultured in vivo of experimental mouse and adjusted the concentration to 1×10^6 cells/well, was injected into the left armpit of BDF-1 male mice (6-week-old). After 24 hours, adriamycin in the concentration of 0.5 and 1 mg/mouse, and the extracts prepared in Comparative Example 1, 2 and Example 1, 2 in the concentration of 50 and 100 μl/mouse were injected into the mice intraperitoneally. The injection of samples was maintained for 2 weeks until the tumor volume of non-treatment group used as control group become to 2 cm^3. After 2 weeks, the tumor volume was calculated by using following mathematical formulae 1 and 2 to measure the inhibition rate of tumor volume.
[formula] L (cm): Length of the tumor W^2 (cm^2): Width of the tumor
[formula] A: Tumor volume (cm^3) of control group B: Tumor volume (cm^3) of sample treatment group

[2] = tested on: MDA-MB-231 (human breast cancer cell line); test: MTT cell cytotoxicity on MDA-MB-231 cells; assay type: cell-based; settings: 48 hours, adriamycin, read-out: IC50, cytotoxic effect on MDA-MB-231 cells
Description: (§1) U937 cells (human leukemia cell line), A549 cells (human lung cancer cell line) and MDA-MB-231 (human breast cancer cell line) cells were grown on the culture dish having 100 mm diameter (TPP Co., Ltd., Switzerland) in RPMI1640 (Gibco BRL Co., Ltd., USA), supplemented with 10% fetal bovine serum which was inactivated at 37° C. in 5% CO2 and 95% air condition in a humidified incubator. […] Cells on […] culture dish were treated with 500 μl of trypsin-EDTA (Gibco BRL Co., Ltd., U.S.A.) to separate from the dish and 10 ml of fresh medium was added thereto so as to neutralize trypsin-EDTA solution and obtain cell suspension. 1×10^4 cells/well were seeded in 96-well plate and after 24 hours incubation. […] The plate was incubated for 20 minutes at room temperature and then UV absorbance the samples was measured by microplate reader (ELISA reader, DENLEY Co., Japan) to calculate the cell viability at 570 nm. The cell viability rate of negative control group treated with only medium was calculated as a 100% and those of other sample and positive control were calculated. […] The measured absorbance showing the reduced amount of existing cellular enzyme in MTT was proportioned to survival cell density. […]

[3] = tested on: A549 cells (human lung cancer cell line); test: MTT cell cytotoxicity on A549 cells; assay type: cell-based; settings: 48 hours, adriamycin, read-out: IC50, cytotoxic effect on A549 cells (text, printed A5497)
Description: as §1

[4] = tested on: U937 cells (human leukemia cell line); test: MTT cell cytotoxicity on U937 cells; assay type: cell-based; settings: U-937, 48 hours, adriamycin, read-out: IC50, cytotoxic effect on U937 cells
Description: as §1

splenic leucocytes = test: Immunostimulating effect on splenic leucocytes (flow cytometry); assay type: cell-based, BALB c mouse; settings: 3 days
Description: To determine the immunostimulating effect of the extract of the present invention, splenic leucocytes (1×10^6 cells/ml) of BALB c mouse were suspended in RPMI1640 medium (Gibco BRL Co., Ltd., USA) supplemented with 100 μg/ml of streptomycin, 100 U/ml of penicillin and 10% fetal bovine serum, and treated with 200 μl/ml of the extracts of Comparative Example 1, 2 and Example 1, 2, respectively. The solution was incubated at 37° C. in 5% CO2 and 95% air condition in a humidified incubator for 3 days and the formation of leucocytes was determined by Flow cytometry. 200 μg/ml of adriamycin treatment group was used as control group.

Compound: COc1cccc2c1C(=O)c1c(O)c3c(c(O)c1C2=O)C[C@@](O)(C(=O)CO)C[C@@H]3O[C@H]1C[C@H](N)[C@H](O)[C@H](C)O1 [Adriamycin, adriamycin]
- Inhibition effect (%) on tumor volume [1]: 31.20 ± 8.05%
- IC50 [2]: 3 µg/mL (≈ 5.52 µM)
- IC50 [3]: 3 µg/mL (≈ 5.52 µM)
- IC50 [4]: 3 µg/mL (≈ 5.52 µM)
- Decrease of immunity (splenic leucocytes; 200 μg/ml adriamycin): 26.1%
- Increase rate of lymphocyte (%) (splenic leucocytes; concentration 200 μg/ml): −21.6%
